According to US11306075B2, “Benzofuran, benzothiophene, and indole analogs that inhibit the formation of tau oligomers and their method of use” (OLIGOMERIX INC., priority 2016, dated 2022):
Where a name gives a salt, the structure may show the parent alone.

Biological target: recombinant human tau 4R2N (Homo sapiens (Human), UniProt P10636)
Assay: Confirmatory Assay (CONFA), SDS-PAGE quantification of tau monomer and oligomers
Type: biochemical
Settings: tau target 300 nM, Tris-HCl pH 7.4, room temperature 3 hours, compound 0.098 uM-50 uM
Description: Bacterial recombinant human tau 4R2N (the largest isoform of tau in the central nervous system, 441 amino acids in length, Seq ID 1) constructs with either 6×-His or StrepII N-terminal epitope tags were purified from bacterial lysate using denaturing conditions to prepare tau in its monomeric form.
CONFA Assay: Confirmatory Assay (CONFA) used as a secondary screen for confirming the mechanism of action of compounds identified as hits using the ALA assay. The assay is performed using a similar procedure as ALA except that it utilizes SDS-PAGE for visualization and quantification of tau monomer and aggregated species (dimer, trimer, tetramer, pentamer, etc.). Only a single construct of tau without epitope tags is necessary, but the assay can use the same target prepared for the ALA assay also.
For the CONFA assay, Tau target (300 nM) was prepared in buffer (Tris-HCl pH 7.4) and was incubated at room temperature for 3 hours with vehicle control (DMSO) and a dose range of a compound of the disclosure (0.098 uM-50 uM). Samples were mixed with an equal volume of 2×SDS sample buffer (4% SDS, 20% glycerol, 0.004% bromphenol blue, 125 mM Tris HCl, pH 7.0) to resolve tau monomer and disulfide-finked oligomers on 4-20% gradient polyacrylamide gels (Biorad) along with positive control (non-oligomerized tau target). The gels were stained with Oriole Fluorescent Gel Stain (BioRad) and imaged using the FluorChem R system (Protein Simple). AlphaView software (Protein Simple) was used for quantification of tau monomer and oligomers.

Chain of recombinant human tau 4R2N (P10636 other isoform, or with tags, fused parts or gaps): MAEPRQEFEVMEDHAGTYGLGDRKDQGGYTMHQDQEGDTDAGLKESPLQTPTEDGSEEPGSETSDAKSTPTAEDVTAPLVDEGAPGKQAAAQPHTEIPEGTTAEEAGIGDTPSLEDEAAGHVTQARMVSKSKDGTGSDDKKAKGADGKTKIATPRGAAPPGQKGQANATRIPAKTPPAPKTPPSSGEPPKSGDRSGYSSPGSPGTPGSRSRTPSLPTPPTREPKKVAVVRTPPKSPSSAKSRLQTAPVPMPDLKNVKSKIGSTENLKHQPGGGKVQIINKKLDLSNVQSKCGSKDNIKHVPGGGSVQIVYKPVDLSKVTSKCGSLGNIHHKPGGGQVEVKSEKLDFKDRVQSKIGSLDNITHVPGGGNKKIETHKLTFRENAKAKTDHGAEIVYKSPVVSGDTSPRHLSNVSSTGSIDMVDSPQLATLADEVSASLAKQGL

Row | SMILES | IC50
1 | Cc1ccc(-c2c(CCC(=O)N3CCC(O)CC3)oc3ccc(Br)cc23)o1 [Ex. 13, 3-[5-Bromo-3-(5-methyl-furan-2-yl)-benzofuran-2-yl]-1-(4-hydroxy-piperidin-1-yl)-propan-1-one] | 3.23 µM
2 | CC(=O)CCc1oc2cc(-c3ccncc3)ccc2c1-c1ccc(C)o1 [Ex. 22, 4-(3-(5-Methylfuran-2-yl)-6-(pyridin-4-yl)benzofuran-2-yl)butan-2-one] | 7.57 µM
3 | Cc1ccc(-c2c(CCC(C)(C)O)oc3ccc(Br)cc23)o1 [Ex. 15, 4-(5-Bromo-3-(5-methylfuran-2-yl)benzofuran-2-yl)-2-methylbutan-2-ol] | 1.32 µM
4 | COc1ccc(-c2ccc3c(-c4ccc(C)o4)c(CCC(C)=O)oc3c2)cn1 [Ex. 28, 4-(6-(6-Methoxypyridin-3-yl)-3-(5-methylfuran-2-yl)benzofuran-2-yl)butan-2-one] | 17.5 µM
5 | CC(=O)CCc1oc2cc(-c3cccnc3)ccc2c1-c1ccc(C)o1 [Ex. 24, 4-(3-(5-methylfuran-2-yl)-6-(pyridin-3-yl)benzofuran-2-yl)butan-2-one] | 11.8 µM
6 | CC(=O)CCc1oc2cc(-c3cccnc3)ccc2c1-c1ccc(F)cc1 [Ex. 31, 4-(3-(4-fluorophenyl)-6-(pyridin-3-yl)benzofuran-2-yl)butan-2-one HCl Salt] | 9.28 µM
7 | CC(=O)CCc1oc2ccc(-c3cccnc3)cc2c1-c1ccc(C)o1 [Ex. 3, 4-(3-(5-Methylfuran-2-yl)-5-(pyridin-3-yl)benzofuran-2-yl)butan-2-one] | 37.1 µM
8 | CC(=O)CCc1oc2ccc(-c3cccs3)cc2c1-c1ccc(C)o1 [Ex. 8, 4-(3-(5-Methylfuran-2-yl)-5-(thiophen-2-yl)benzofuran-2-yl)butan-2-one] | 5.57 µM
9 | COc1cccc(-c2ccc3oc(CCC(C)=O)c(-c4ccc(C)o4)c3c2)c1 [Ex. 5, 4-(5-(3-Methoxyphenyl)-3-(5-methylfuran-2-yl)benzofuran-2-yl)butan-2-one] | 0.364 µM
10 | CC(=O)CCc1oc2ccc(-c3cncnc3)cc2c1-c1ccc(C)cc1 [Ex. 29, 4-(5-(pyrimidin-5-yl)-3-p-tolylbenzofuran-2-yl)butan-2-one, di HCl Salt] | 7.38 µM
11 | COc1cc(-c2ccc3c(-c4ccc(C)o4)c(CCC(C)=O)oc3c2)ccn1 [Ex. 23, 4-(6-(2-Methoxypyridin-4-yl)-3-(5-methylfuran-2-yl)benzofuran-2-yl)butan-2-one] | 7.18 µM
12 | CC(=O)CCc1oc2ccc(-c3cccc(O)c3)cc2c1-c1ccc(C)o1 [Ex. 4, 4-(5-(3-Hydroxyphenyl)-3-(5-methylfuran-2-yl)benzofuran-2-yl)butan-2-one] | 24.1 µM
13 | CC(=O)CCc1oc2cc(-c3cncnc3)ccc2c1-c1ccc(C)o1 [Ex. 30, 4-(3-(5-methylfuran-2-yl)-6-(pyrimidin-5-yl)benzofuran-2-yl)butan-2-one, di HCl Salt] | 20.4 µM
14 | Cc1ccc(-c2c(CCC(=O)O)oc3ccc(Br)cc23)o1 [Ex. 12, 3-[5-Bromo-3-(5-methyl-furan-2-yl)-benzofuran-2-yl]-propionic Acid] | 22.5 µM
15 | COc1ccc(-c2ccc3oc(CCC(C)=O)c(-c4ccc(C)o4)c3c2)cn1 [Ex. 2, 4-(5-(6-Methoxypyridin-3-yl)-3-(5-methylfuran-2-yl)benzofuran-2-yl)butan-2-one] | 4.27 µM
16 | Cc1ccc(C(C)(O)CCc2oc3ccc(Br)cc3c2-c2ccc(C)o2)cc1 (stereo not shown) [Ex. 16, 4-(5-Bromo-3-(5-methylfuran-2-yl)benzofuran-2-yl)-2-p-tolylbutane-2-ol] | 1.31 µM
